Reference: the supplement of paper PMC10307832

Assays:
Experiment in all cases: relative viability (nuclei count vs DMSO), 5 days (fraction); higher = more cells survive
[1] = system: NCI-H322M
How it was run: (§1)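 Dosing by pin tool came one day after lung cancer cell lines were seeded in 1536-well plates, using either one drug or a fixed anchor-drug dose plus five library-drug doses (not always all listed) in √10 steps. After 5 days, nuclei were counted on 4× images. Relative viability is treated-well nuclei count divided by vehicle-well nuclei count, and values are medians of duplicate plates.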

[2] = system: HCC-827
How it was run: as §1

[3] = system: NCI-H1792
How it was run: as §1

[4] = system: CAL-12T
How it was run: as §1

[5] = system: HCC-44
How it was run: as §1

[6] = system: LXF-289
How it was run: as §1

[7] = system: NCI-H520
How it was run: as §1

[8] = system: NCI-H1944
How it was run: as §1

[9] = system: NCI-H1666
How it was run: as §1

[10] = system: NCI-H1395
How it was run: as §1

[11] = system: LCLC-103H
How it was run: as §1

[12] = system: NCI-H358
How it was run: as §1

[13] = system: NCI-H1755
How it was run: as §1

[14] = system: RERF-LC-KJ
How it was run: as §1

[15] = system: LU99A
How it was run: as §1

[16] = system: NCI-H3122
How it was run: as §1

[17] = system: NCI-H1793
How it was run: as §1

[18] = system: ABC-1
How it was run: as §1

[19] = system: NCI-H2347
How it was run: as §1

[20] = system: NCI-H2126
How it was run: as §1

[21] = system: SK-LU-1
How it was run: as §1

Compound `Cc1csc(=NC2CCCCC2)n1/N=C/c1ccc(O)c(O)c1O` [MIM1] + C[C@]1(O)C[C@@H](c2nc(-c3ccc4ccc(-c5ccccc5)nc4c3)c3c(N)nccn32)C1 [Linsitinib] (partner 1 µM) has a relative viability ([1]; first compound 0.2 µM) of 1.01, a relative viability ([1]; first compound 0.6325 µM) of 0.981 and a relative viability ([1]; first compound 2 µM) of 1.05. It also gave a relative viability ([1]; first compound 6.325 µM) of 0.905, a relative viability ([1]; first compound 20 µM) of 0.912 and a relative viability ([2]; first compound 0.2 µM) of 0.955. It also gave a relative viability ([2]; first compound 0.6325 µM) of 0.971, a relative viability ([2]; first compound 2 µM) of 0.959 and a relative viability ([2]; first compound 6.325 µM) of 0.387. The relative viability ([2]; first compound 20 µM) was 0.741, the relative viability ([3]; first compound 0.2 µM) was 0.551 and the relative viability ([3]; first compound 0.6325 µM) was 0.438. The relative viability ([3]; first compound 2 µM) was 0.481, the relative viability ([3]; first compound 6.325 µM) was 0.383 and the relative viability ([3]; first compound 20 µM) was 0.503. It also gave a relative viability ([4]; first compound 0.2 µM) of 0.803, a relative viability ([4]; first compound 0.6325 µM) of 0.677 and a relative viability ([4]; first compound 2 µM) of 0.695. For the same compound, the relative viability ([4]; first compound 6.325 µM) was 0.634, the relative viability ([4]; first compound 20 µM) was 0.225 and the relative viability ([5]; first compound 0.2 µM) was 0.67. The relative viability ([5]; first compound 0.6325 µM) was 0.713, the relative viability ([5]; first compound 2 µM) was 0.555 and the relative viability ([5]; first compound 6.325 µM) was 0.555. For the same compound, the relative viability ([5]; first compound 20 µM) was 0.141, the relative viability ([6]; first compound 0.2 µM) was 0.943 and the relative viability ([6]; first compound 0.6325 µM) was 0.923. For the same compound, the relative viability ([6]; first compound 2 µM) was 0.943, the relative viability ([6]; first compound 6.325 µM) was 0.787 and the relative viability ([6]; first compound 20 µM) was 0.624. For the same compound, the relative viability ([7]; first compound 0.2 µM) was 0.983, the relative viability ([7]; first compound 0.6325 µM) was 1.1 and the relative viability ([7]; first compound 2 µM) was 0.921. It also gave a relative viability ([7]; first compound 6.325 µM) of 0.64, a relative viability ([7]; first compound 20 µM) of 0.5 and a relative viability ([8]; first compound 0.2 µM) of 1.12. For the same compound, the relative viability ([8]; first compound 0.6325 µM) was 1.13, the relative viability ([8]; first compound 2 µM) was 0.923 and the relative viability ([8]; first compound 6.325 µM) was 1. The relative viability ([8]; first compound 20 µM) was 1.46, the relative viability ([9]; first compound 0.2 µM) was 0.791 and the relative viability ([9]; first compound 0.6325 µM) was 0.753. For the same compound, the relative viability ([9]; first compound 2 µM) was 0.732, the relative viability ([9]; first compound 6.325 µM) was 0.606 and the relative viability ([9]; first compound 20 µM) was 0.526. It also gave a relative viability ([10]; first compound 0.2 µM) of 0.927, a relative viability ([10]; first compound 0.6325 µM) of 1.03 and a relative viability ([10]; first compound 2 µM) of 1.07. The relative viability ([10]; first compound 6.325 µM) was 0.606, the relative viability ([10]; first compound 20 µM) was 0.355 and the relative viability ([11]; first compound 0.2 µM) was 0.994. For the same compound, the relative viability ([11]; first compound 0.6325 µM) was 1.08, the relative viability ([11]; first compound 2 µM) was 1.22 and the relative viability ([11]; first compound 6.325 µM) was 0.999. It also gave a relative viability ([11]; first compound 20 µM) of 1.05, a relative viability ([12]; first compound 0.2 µM) of 0.703 and a relative viability ([12]; first compound 0.6325 µM) of 0.651. The relative viability ([12]; first compound 2 µM) was 0.694, the relative viability ([12]; first compound 6.325 µM) was 0.324 and the relative viability ([12]; first compound 20 µM) was 0.341. The relative viability ([13]; first compound 0.2 µM) was 1.02, the relative viability ([13]; first compound 0.6325 µM) was 0.996 and the relative viability ([13]; first compound 2 µM) was 1.03. The relative viability ([13]; first compound 6.325 µM) was 0.71, the relative viability ([13]; first compound 20 µM) was 0.724 and the relative viability ([14]; first compound 0.2 µM) was 0.81. For the same compound, the relative viability ([14]; first compound 0.6325 µM) was 0.866, the relative viability ([14]; first compound 2 µM) was 0.773 and the relative viability ([14]; first compound 6.325 µM) was 0.473. It also gave a relative viability ([14]; first compound 20 µM) of 0.287, a relative viability ([15]; first compound 0.2 µM) of 0.528 and a relative viability ([15]; first compound 0.6325 µM) of 0.57. The relative viability ([15]; first compound 2 µM) was 0.489, the relative viability ([15]; first compound 6.325 µM) was 0.545 and the relative viability ([15]; first compound 20 µM) was 0.284. For the same compound, the relative viability ([16]; first compound 0.2 µM) was 0.959, the relative viability ([16]; first compound 0.6325 µM) was 1.08 and the relative viability ([16]; first compound 2 µM) was 1.12. For the same compound, the relative viability ([16]; first compound 6.325 µM) was 0.926, the relative viability ([16]; first compound 20 µM) was 0.396 and the relative viability ([17]; first compound 0.2 µM) was 0.799. The relative viability ([17]; first compound 0.6325 µM) was 0.902, the relative viability ([17]; first compound 2 µM) was 0.809 and the relative viability ([17]; first compound 6.325 µM) was 0.925. The relative viability ([17]; first compound 20 µM) was 1.02, the relative viability ([18]; first compound 0.2 µM) was 0.769 and the relative viability ([18]; first compound 0.6325 µM) was 1.14. For the same compound, the relative viability ([18]; first compound 2 µM) was 0.651, the relative viability ([18]; first compound 6.325 µM) was 0.388 and the relative viability ([18]; first compound 20 µM) was 0.24. It also gave a relative viability ([19]; first compound 0.2 µM) of 0.985, a relative viability ([19]; first compound 0.6325 µM) of 0.994 and a relative viability ([19]; first compound 2 µM) of 0.98. It also gave a relative viability ([19]; first compound 6.325 µM) of 0.736, a relative viability ([19]; first compound 20 µM) of 0.656 and a relative viability ([20]; first compound 0.2 µM) of 0.715. For the same compound, the relative viability ([20]; first compound 0.6325 µM) was 0.695, the relative viability ([20]; first compound 2 µM) was 0.744 and the relative viability ([20]; first compound 6.325 µM) was 0.707. For the same compound, the relative viability ([20]; first compound 20 µM) was 0.702, the relative viability ([21]; first compound 0.2 µM) was 1.12 and the relative viability ([21]; first compound 0.6325 µM) was 1.26. It also gave a relative viability ([21]; first compound 2 µM) of 1.29, a relative viability ([21]; first compound 6.325 µM) of 1.03 and a relative viability ([21]; first compound 20 µM) of 0.996.
